According to ChEMBL document CHEMBL4265887 (Bioorg Med Chem Lett, 2018):
Converted amounts (≈) assume the structure as drawn. The source made the active and inactive calls. The calls are words filed in the database; no cut-off is given here.

Legend:
[1] = target: Tyrosine-protein kinase JAK3 (Homo sapiens) (UniProt P52333); experiment: Inhibition of JAK3 (unknown origin) at 10 uM
HCT-116 [2] = experiment: Synergistic cytotoxicity against human HCT116 cells assessed as reduction in cell viability by measuring combination index at 1:1 compound to GSK2126458 ratio after 48 hrs by MTT assay; type: functional
HCT-116 [3] = experiment: Induction of apoptosis in human HCT116 cells at 100 nM after 72 hrs by Annexin V-FITC staining-based flow cytometric analysis; type: functional, cell-based
[4] = target: Fibroblast growth factor receptor 3 (Homo sapiens) (UniProt P22607); experiment: Inhibition of FGFR3 (unknown origin) at 10 uM
Sequence of Fibroblast growth factor receptor 3 (Homo sapiens) (P22607 23-806 limits assumed): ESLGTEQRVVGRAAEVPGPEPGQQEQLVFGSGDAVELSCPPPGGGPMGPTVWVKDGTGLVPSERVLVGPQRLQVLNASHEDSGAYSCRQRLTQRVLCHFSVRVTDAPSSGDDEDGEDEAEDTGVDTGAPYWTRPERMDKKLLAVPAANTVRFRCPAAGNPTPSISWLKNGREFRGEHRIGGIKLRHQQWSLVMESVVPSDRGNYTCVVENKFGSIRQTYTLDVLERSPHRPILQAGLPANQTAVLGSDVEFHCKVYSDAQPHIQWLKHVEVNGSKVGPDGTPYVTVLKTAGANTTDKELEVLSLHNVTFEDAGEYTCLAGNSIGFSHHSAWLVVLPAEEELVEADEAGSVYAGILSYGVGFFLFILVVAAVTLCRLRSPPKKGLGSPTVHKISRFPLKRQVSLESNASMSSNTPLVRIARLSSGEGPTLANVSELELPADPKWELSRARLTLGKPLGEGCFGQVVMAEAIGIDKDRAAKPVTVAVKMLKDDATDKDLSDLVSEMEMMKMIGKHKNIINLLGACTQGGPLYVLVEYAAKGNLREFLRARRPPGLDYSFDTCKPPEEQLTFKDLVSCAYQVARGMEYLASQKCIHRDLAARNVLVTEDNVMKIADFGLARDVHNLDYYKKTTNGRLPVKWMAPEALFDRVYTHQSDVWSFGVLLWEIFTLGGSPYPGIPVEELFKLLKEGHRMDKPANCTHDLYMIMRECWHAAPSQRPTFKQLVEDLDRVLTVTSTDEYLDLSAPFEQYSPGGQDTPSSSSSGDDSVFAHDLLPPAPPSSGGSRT

HT-29 [5] = experiment: Synergistic cytotoxicity against human HT-29 cells assessed as reduction in cell viability by measuring combination index at 1:1 compound to crizotinib ratio after 48 hrs by MTT assay; type: functional
[6] = target: Serine/threonine-protein kinase mTOR (Homo sapiens) (UniProt P42345); experiment: Inhibition of mTOR (unknown origin) at 10 uM
[7] = target: Serine/threonine-protein kinase pim-1 (Homo sapiens) (UniProt P11309); experiment: Inhibition of PIM1 (unknown origin) at 10 uM
Sequence of Serine/threonine-protein kinase pim-1 (Homo sapiens) (P11309 whole entry, looked up): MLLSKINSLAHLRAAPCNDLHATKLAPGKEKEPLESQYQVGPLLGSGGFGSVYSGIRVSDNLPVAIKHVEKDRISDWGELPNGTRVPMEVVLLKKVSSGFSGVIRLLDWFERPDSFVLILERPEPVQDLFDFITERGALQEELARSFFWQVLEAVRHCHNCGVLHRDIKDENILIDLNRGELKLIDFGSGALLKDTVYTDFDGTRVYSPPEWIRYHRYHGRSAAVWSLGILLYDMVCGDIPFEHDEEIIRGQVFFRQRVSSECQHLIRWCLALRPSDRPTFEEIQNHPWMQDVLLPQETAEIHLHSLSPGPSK

HT-29 [8] = experiment: Synergistic cytotoxicity against human HT-29 cells assessed as reduction in cell viability by measuring combination index at 1:1 compound to trichostatin A ratio after 48 hrs by MTT assay; type: functional
[9] = target: Serine/threonine-protein kinase PAK 4 (Homo sapiens) (UniProt O96013); experiment: Inhibition of PAK4 (unknown origin) at 10 uM
HCT-116 [10] = experiment: Synergistic cytotoxicity against human HCT116 cells assessed as reduction in cell viability by measuring combination index at 1:1 compound to dasatinib ratio after 48 hrs by MTT assay; type: functional
[11] = target: Proto-oncogene tyrosine-protein kinase Src (Homo sapiens) (UniProt P12931); experiment: Inhibition of c-Src (unknown origin) at 10 uM
Sequence of Proto-oncogene tyrosine-protein kinase Src (Homo sapiens) (P12931 2-536 limits assumed): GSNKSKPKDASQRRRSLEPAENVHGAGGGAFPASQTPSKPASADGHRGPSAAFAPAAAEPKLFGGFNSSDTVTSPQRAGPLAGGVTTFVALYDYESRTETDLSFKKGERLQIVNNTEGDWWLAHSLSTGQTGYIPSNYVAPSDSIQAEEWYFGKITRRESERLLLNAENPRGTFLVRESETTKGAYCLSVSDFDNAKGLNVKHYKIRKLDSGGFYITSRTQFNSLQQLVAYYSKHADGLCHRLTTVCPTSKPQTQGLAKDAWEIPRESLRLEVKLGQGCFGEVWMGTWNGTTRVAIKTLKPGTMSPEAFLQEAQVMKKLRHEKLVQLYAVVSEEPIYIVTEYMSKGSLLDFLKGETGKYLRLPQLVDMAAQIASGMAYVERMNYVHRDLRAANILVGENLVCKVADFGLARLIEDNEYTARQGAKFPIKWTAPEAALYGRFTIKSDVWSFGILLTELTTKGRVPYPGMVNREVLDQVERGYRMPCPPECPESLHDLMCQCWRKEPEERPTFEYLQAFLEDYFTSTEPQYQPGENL

[12] = target: Tyrosine-protein kinase CSK (Homo sapiens) (UniProt P41240); experiment: Inhibition of CSK (unknown origin) at 10 uM
[13] = target: Serine/threonine-protein kinase PAK 1 (Homo sapiens) (UniProt Q13153); experiment: Inhibition of PAK1 (unknown origin) at 10 uM
[14] = target: Interleukin-1 receptor-associated kinase 4 (Homo sapiens) (UniProt Q9NWZ3); experiment: Inhibition of IRAK4 (unknown origin) at 10 uM
[15] = Solubility of the compound in phosphate buffer of pH 2 after 24 hrs by RP-HPLC analysis; type: physicochemical
[16] = target: Mitogen-activated protein kinase 3 (Homo sapiens) (UniProt P27361); experiment: Inhibition of ERK1 (unknown origin) at 10 uM
Sequence of Mitogen-activated protein kinase 3 (Homo sapiens) (P27361 whole entry): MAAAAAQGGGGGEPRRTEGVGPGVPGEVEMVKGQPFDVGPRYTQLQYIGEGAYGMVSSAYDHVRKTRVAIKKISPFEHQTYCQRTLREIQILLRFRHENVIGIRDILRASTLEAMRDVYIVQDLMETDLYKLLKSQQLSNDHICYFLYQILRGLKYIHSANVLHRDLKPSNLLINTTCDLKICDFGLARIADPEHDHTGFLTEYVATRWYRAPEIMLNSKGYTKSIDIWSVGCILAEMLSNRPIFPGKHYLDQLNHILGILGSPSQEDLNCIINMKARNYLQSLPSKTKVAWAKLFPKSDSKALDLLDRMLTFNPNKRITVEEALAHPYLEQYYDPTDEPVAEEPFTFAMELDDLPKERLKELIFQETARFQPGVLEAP

[17] = target: Serine/threonine-protein kinase Chk1 (Homo sapiens) (UniProt O14757); experiment: Inhibition of CHK1 (unknown origin) at 10 uM
HCT-116 [18] = experiment: Synergistic cytotoxicity against human HCT116 cells assessed as reduction in cell viability by measuring combination index at 1:1 compound to crizotinib ratio after 48 hrs by MTT assay; type: functional
[19] = target: Death-associated protein kinase 3 (Homo sapiens) (UniProt O43293); experiment: Inhibition of ZIPK (unknown origin) at 10 uM
HT-29 [20] = experiment: Synergistic cytotoxicity against human HT-29 cells assessed as reduction in cell viability by measuring combination index at 1:1 compound to dasatinib ratio after 48 hrs by MTT assay; type: functional
[21] = target: Proto-oncogene tyrosine-protein kinase receptor Ret (Homo sapiens) (UniProt P07949); experiment: Inhibition of RET (unknown origin) at 10 uM
[22] = target: Mitogen-activated protein kinase 8 (Homo sapiens) (UniProt P45983); experiment: Inhibition of JNK1 (unknown origin) at 10 uM
[23] = target: Platelet-derived growth factor receptor beta (Homo sapiens) (UniProt P09619); experiment: Inhibition of PDGFRbeta (unknown origin) at 10 uM
Sequence of Platelet-derived growth factor receptor beta (Homo sapiens) (P09619 whole entry): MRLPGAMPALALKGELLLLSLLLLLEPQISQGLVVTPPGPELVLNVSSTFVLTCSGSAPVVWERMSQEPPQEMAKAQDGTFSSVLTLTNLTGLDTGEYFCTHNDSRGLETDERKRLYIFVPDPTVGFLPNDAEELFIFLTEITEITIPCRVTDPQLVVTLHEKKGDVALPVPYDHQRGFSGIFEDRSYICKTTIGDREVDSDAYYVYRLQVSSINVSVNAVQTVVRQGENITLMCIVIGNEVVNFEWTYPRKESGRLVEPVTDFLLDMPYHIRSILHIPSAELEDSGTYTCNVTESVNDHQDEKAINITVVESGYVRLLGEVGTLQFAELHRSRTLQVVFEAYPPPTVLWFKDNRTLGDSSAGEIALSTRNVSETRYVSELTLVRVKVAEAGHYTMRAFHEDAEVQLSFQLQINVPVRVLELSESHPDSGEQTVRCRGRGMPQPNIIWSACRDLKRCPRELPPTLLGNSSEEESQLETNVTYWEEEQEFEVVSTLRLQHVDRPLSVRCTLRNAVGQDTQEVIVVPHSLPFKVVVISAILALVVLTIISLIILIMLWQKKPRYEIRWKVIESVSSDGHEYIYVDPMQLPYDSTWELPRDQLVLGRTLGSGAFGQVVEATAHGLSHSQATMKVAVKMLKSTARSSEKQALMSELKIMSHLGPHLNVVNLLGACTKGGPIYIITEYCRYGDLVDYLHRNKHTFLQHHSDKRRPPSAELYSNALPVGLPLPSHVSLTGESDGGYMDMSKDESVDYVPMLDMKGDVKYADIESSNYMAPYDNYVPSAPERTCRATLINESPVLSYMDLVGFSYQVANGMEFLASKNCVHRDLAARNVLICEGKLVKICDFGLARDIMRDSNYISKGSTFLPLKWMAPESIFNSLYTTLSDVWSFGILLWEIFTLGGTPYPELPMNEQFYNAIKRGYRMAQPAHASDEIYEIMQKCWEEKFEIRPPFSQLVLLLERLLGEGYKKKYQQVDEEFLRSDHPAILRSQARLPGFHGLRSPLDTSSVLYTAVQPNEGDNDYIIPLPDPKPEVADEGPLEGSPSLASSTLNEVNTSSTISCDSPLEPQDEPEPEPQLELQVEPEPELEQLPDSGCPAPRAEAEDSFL

[24] = target: Serine/threonine-protein kinase B-raf (Homo sapiens) (UniProt P15056); experiment: Inhibition of BRAF (unknown origin) at 10 uM
HCT-116 [25] = experiment: Cytotoxicity against human HCT116 cells assessed as reduction in cell viability after 48 hrs by MTT assay; type: functional, cell-based; conditions: HCT-116, 48 h
HCT-116 [26] = experiment: Inhibition of cytokinesis in human HCT116 cells at 100 nM after 24 hrs by propidium iodide/RNase staining-based flow cytometric analysis; type: functional, cell-based
HCT-116 [27] = experiment: Synergistic cytotoxicity against human HCT116 cells assessed as reduction in cell viability by measuring combination index at 1:1 compound to lonafarnib ratio after 48 hrs by MTT assay; type: functional
[28] = target: Inhibitor of nuclear factor kappa-B kinase subunit beta (Homo sapiens) (UniProt O14920); experiment: Inhibition of IKKbeta (unknown origin) at 10 uM
[29] = target: Receptor-type tyrosine-protein kinase FLT3 (Homo sapiens) (UniProt P36888); experiment: Inhibition of FLT3 (unknown origin) at 10 uM
[30] = target: Epithelial discoidin domain-containing receptor 1 (Homo sapiens) (UniProt Q08345); experiment: Inhibition of DDR1 (unknown origin) at 10 uM
[31] = target: Protein kinase C alpha type (Homo sapiens) (UniProt P17252); experiment: Inhibition of PKCalpha (unknown origin) at 10 uM
[32] = target: Tyrosine-protein kinase SYK (Homo sapiens) (UniProt P43405); experiment: Inhibition of SYK (unknown origin) at 10 uM
[33] = target: Rho-associated protein kinase 2 (Homo sapiens) (UniProt O75116); experiment: Inhibition of ROCK2 (unknown origin) at 10 uM
[34] = target: Insulin receptor (Homo sapiens) (UniProt P06213); experiment: Inhibition of INSR (unknown origin) at 10 uM
HCT-15 = experiment: Cytotoxicity against human HCT15 cells assessed as reduction in cell viability after 48 hrs by MTT assay; type: functional, cell-based; conditions: HCT-15, 48 h
HCT-116 [35] = experiment: Inhibition of cytokinesis in human HCT116 cells at 1 uM after 24 hrs by propidium iodide/RNase staining-based flow cytometric analysis; type: functional, cell-based
[36] = target: Vascular endothelial growth factor receptor 2 (Homo sapiens) (UniProt P35968); experiment: Inhibition of VEGFR2 (unknown origin) at 10 uM
[37] = target: Tyrosine-protein kinase receptor UFO (Homo sapiens) (UniProt P30530); experiment: Inhibition of AXL (unknown origin) at 10 uM
[38] = Solubility of the compound in phosphate buffer of pH 7.4 after 24 hrs by RP-HPLC analysis; type: physicochemical; conditions: phosphate buffer, pH 7.4
[39] = target: High affinity nerve growth factor receptor (Homo sapiens) (UniProt P04629); experiment: Inhibition of TrkA (unknown origin) at 10 uM
Sequence of High affinity nerve growth factor receptor (Homo sapiens) (P04629 33-796 limits assumed): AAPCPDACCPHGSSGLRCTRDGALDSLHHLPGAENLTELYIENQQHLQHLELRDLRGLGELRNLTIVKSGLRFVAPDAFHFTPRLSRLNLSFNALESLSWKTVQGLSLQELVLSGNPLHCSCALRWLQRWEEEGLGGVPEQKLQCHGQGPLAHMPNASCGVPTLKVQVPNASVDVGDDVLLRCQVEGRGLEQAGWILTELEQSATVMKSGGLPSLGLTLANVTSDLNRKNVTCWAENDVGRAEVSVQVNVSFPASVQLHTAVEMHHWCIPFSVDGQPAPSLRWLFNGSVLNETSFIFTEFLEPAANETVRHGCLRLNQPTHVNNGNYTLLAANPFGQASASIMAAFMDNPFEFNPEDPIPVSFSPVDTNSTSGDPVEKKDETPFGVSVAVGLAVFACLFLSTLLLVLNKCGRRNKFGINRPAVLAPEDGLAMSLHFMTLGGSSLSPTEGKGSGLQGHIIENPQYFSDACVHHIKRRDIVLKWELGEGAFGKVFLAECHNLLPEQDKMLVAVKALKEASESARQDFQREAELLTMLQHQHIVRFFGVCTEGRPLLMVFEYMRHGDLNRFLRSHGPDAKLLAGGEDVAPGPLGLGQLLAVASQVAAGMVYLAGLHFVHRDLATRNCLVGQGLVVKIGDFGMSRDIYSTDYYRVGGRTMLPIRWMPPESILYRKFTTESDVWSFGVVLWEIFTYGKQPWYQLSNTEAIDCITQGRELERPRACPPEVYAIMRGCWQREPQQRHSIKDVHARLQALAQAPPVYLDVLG

[40] = target: Serine/threonine-protein kinase PLK3 (Homo sapiens) (UniProt Q9H4B4); experiment: Inhibition of PLK3 (unknown origin) at 10 uM
HT-29 [41] = experiment: Synergistic cytotoxicity against human HT-29 cells assessed as reduction in cell viability by measuring combination index at 1:1 compound to GSK2126458 ratio after 48 hrs by MTT assay; type: functional

Sequence of Tyrosine-protein kinase JAK3 (Homo sapiens) (P52333 whole entry): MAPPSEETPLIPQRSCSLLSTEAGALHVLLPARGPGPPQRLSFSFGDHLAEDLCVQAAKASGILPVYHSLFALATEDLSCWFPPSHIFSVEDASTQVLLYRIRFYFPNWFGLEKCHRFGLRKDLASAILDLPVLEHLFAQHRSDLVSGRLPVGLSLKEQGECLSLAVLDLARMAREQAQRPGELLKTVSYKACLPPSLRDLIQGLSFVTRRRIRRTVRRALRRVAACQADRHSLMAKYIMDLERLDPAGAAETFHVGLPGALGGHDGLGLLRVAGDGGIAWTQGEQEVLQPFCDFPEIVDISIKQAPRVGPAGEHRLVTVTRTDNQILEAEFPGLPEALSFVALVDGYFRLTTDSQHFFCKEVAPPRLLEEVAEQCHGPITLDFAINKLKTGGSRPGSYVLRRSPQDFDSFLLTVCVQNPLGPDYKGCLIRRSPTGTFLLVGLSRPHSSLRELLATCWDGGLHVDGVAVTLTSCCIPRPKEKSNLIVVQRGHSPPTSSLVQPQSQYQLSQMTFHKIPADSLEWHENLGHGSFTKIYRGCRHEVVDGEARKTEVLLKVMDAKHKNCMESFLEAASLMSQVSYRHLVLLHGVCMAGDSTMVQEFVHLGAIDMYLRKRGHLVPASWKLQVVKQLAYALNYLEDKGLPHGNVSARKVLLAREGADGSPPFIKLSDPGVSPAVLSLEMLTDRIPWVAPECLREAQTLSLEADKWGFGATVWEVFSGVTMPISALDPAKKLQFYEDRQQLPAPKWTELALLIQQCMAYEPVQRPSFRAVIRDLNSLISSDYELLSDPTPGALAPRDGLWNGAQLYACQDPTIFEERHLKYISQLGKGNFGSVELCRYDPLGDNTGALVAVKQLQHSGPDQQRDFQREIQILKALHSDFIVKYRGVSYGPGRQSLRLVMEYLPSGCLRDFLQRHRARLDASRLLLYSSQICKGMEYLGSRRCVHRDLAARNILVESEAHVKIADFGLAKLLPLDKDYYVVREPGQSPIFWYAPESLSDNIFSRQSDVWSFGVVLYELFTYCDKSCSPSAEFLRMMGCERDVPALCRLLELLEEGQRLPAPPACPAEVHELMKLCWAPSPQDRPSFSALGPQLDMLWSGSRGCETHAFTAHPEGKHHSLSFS

CNC(=O)Nc1sc2c(C(C)C)cc(NS(=O)(=O)c3cccs3)cc2c1C(N)=O
inhibition [1]: 99.6% | CI (HCT-116 [2]): 1.042 | Activity (HCT-116 [3]): Active | inhibition [4]: 81.6% | CI (HT-29 [5]): 0.102 | inhibition [6]: 8.62% | inhibition [7]: 35.7% | CI (HT-29 [8]): 0.185 | inhibition [9]: 95.7% | CI (HCT-116 [10]): 1 | inhibition [11]: 105% | inhibition [12]: 17.3% | inhibition [13]: 26.7% | inhibition [14]: 16% | solubility at 24 h [15]: 1.8 µM (≈ 0.815 µg/mL) | inhibition [16]: 12.4% | inhibition [17]: 62.8% | CI (HCT-116 [18]): 0.136 | inhibition [19]: 12.9% | CI (HT-29 [20]): 0.073 | inhibition [21]: 98.4% | inhibition [22]: 12.2% | inhibition [23]: 88% | inhibition [24]: 53.5% | IC50 (HCT-116 [25]): 290 nM | Cytokinesis inhibition (active/inactive call) (HCT-116 [26]): Active | CI (HCT-116 [27]): 0.755 | inhibition [28]: 16.2% | inhibition [29]: 56.8% | inhibition [30]: 84.4% | inhibition [31]: 21.4% | inhibition [32]: 16.6% | inhibition [33]: 11.8% | inhibition [34]: 28.5% | IC50 (HCT-15): 620 nM | Cytokinesis inhibition (active/inactive call) (HCT-116 [35]): Active | inhibition [36]: 109% | inhibition [37]: 112% | solubility at 24 h [38]: 1.9 µM (≈ 0.86 µg/mL) | inhibition [39]: 95.3% | inhibition [40]: 78.7% | CI (HT-29 [41]): 1.044
